Reference: patent EP4818168A1, “FUSED RING COMPOUND, PHARMACEUTICAL COMPOSITION THEREOF AND USE THEREOF” (priority 2023, dated 2025)
Like-named read-outs stand apart in the source and are kept apart here.

Tests used:
AURKA = target: T1, AURKA (Homo sapiens, UniProt O14965); type: cell-based
T1 construct: endogenous in cells; host or cells: Jurkat cells
T1 sequence (O14965 1-403): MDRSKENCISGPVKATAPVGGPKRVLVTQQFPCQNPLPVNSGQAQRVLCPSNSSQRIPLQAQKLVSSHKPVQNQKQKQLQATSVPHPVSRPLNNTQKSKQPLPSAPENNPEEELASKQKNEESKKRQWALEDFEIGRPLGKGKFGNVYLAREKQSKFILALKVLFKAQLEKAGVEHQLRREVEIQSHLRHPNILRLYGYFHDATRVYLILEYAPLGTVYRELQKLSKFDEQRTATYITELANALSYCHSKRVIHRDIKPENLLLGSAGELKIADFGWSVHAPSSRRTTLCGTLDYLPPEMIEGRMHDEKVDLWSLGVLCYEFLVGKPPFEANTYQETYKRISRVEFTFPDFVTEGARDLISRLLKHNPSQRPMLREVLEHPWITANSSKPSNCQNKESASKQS
Summary of the method: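 AURKA degradation read by western blot: band signal, fluorescent or chemiluminescent, curve-fitted to derive DC50. Cells were Jurkat, plated at 1×10^6 cells/500 µL with compound, then lysed and blotted onto nitrocellulose, primary antibody overnight at 4°C.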

H82 cells = assay: cells; type: cell-based; conditions: Homo sapiens
Summary of the method: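 After 6 days' compound treatment at 37 °C (final DMSO 0.1%, RPMI1640/10% FBS), viable H82 cells were quantified by ATP-dependent CellTiter-Glo luminescence. Remaining activity was calculated against DMSO and medium wells, and a sigmoidal fit gave IC50.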

[1] = 100 nM compound, Jurkat cells, 24 h, Table 2
[2] = 1 µM compound, Jurkat cells, 24 h, Table 2
[3] = NCI-H82, H82 cells, 4000 cells/well, CellTiter-Glo, read-out: IC50 in H82 Cells
[4] = NCI-H82, read-out: IC50 in H82 Cells

SMILES	Percentage of AURKA Degradation Induced by 100 nM Compound in Jurkat Cells (AURKA; [1])	Percentage of AURKA Degradation Induced by 1 µM Compound in Jurkat Cells (AURKA; [2])	IC50 (H82 cells; [3]) [nM]	Percentage of AURKA Degradation Induced by 100 nM Compound in Jurkat Cells (AURKA)	Percentage of AURKA Degradation Induced by 1 µM Compound in Jurkat Cells (AURKA)	IC50 (H82 cells; [4]) [nM]
O=C1CCN(c2cccc(N3CCC(N4CC(c5cccc(Nc6ncc7c(n6)-c6ccc(Cl)cc6C(c6c(F)cccc6F)=NC7)c5)C4)C3)c2)C(=O)N1 (stereo not drawn) [Compound A170]	+++ (Degradation > 70%)	+++ (Degradation > 70%)	< 1000	–	–	–
CN(C)Cc1ccc2c(c1)C(c1c(F)cccc1F)=NCc1cnc(Nc3ccc(C(=O)NC4CC5(CCN(c6ccc(N7CCC(=O)NC7=O)cn6)CC5)C4)cc3)nc1-2 [Compound A172]	++ (30% < Degradation ≤ 70%)	+++ (Degradation > 70%)	< 1000	–	–	–
O=C1CCN(c2cnc(N3CCN(CCN4Cc5ccc(Nc6ncc7c(n6)-c6ccc(Cl)cc6C(c6c(F)cccc6F)=NC7)cc5C4)CC3)s2)C(=O)N1 [Compound A174]	++ (30% < Degradation ≤ 70%)	++ (30% < Degradation ≤ 70%)	< 1000	–	–	–
Cc1c(N2CC(CN3CCc4ccc(Nc5ncc6c(n5)-c5ccc(Cl)cc5C(c5c(F)cccc5F)=NC6)cc4C3)C2)cccc1N1CCC(=O)NC1=O [Compound A176]	+++ (Degradation > 70%)	+++ (Degradation > 70%)	< 1000	–	–	–
Cc1c(N2CCC(CN3CCc4ccc(Nc5ncc6c(n5)-c5ccc(Cl)cc5C(c5c(F)cccc5F)=NC6)cc4C3)CC2)cccc1N1CCC(=O)NC1=O [Compound A178]	+++ (Degradation > 70%)	+++ (Degradation > 70%)	< 1000	–	–	–
Cc1c(N2CCC(N3Cc4ccc(Nc5ncc6c(n5)-c5ccc(Cl)cc5C(c5c(F)cccc5F)=NC6)cc4C3)CC2)cccc1N1CCC(=O)NC1=O [Compound A179]	++ (30% < Degradation ≤ 70%)	++ (30% < Degradation ≤ 70%)	< 1000	–	–	–
Cc1c(N2CCC(CN3Cc4ccc(Nc5ncc6c(n5)-c5ccc(Cl)cc5C(c5c(F)cccc5F)=NC6)cc4C3)CC2)cccc1N1CCC(=O)NC1=O [Compound A181]	+++ (Degradation > 70%)	+++ (Degradation > 70%)	< 1000	–	–	–
O=C1CCN(c2cncc(N3CCN(C4CN(c5cccc(Nc6ncc7c(n6)-c6ccc(Cl)cc6C(c6c(F)cccc6F)=NC7)c5)C4)CC3)c2)C(=O)N1 [Compound A183]	+++ (Degradation > 70%)	+++ (Degradation > 70%)	< 1000	–	–	–
O=C1CCN(c2ccc(N3CCN(C4CCN(c5ccc(Nc6ncc7c(n6)-c6ccc(Cl)cc6C(c6c(F)cccc6F)=NC7)cc5)CC4)CC3)nc2)C(=O)N1 [Compound A185]	–	–	–	+++ (key: +: Degradation ≤ 30%; ++: 30% < Degradation ≤ 70%; +++: Degradation > 70%)	+++ (key: +: Degradation ≤ 30%; ++: 30% < Degradation ≤ 70%; +++: Degradation > 70%)	< 1000
O=C1CCN(c2ccc(N3CCC4(CC3)CC(NC(=O)C35CC(Nc6ncc7c(n6)-c6ccc(Cl)cc6C(c6c(F)cccc6F)=NC7)(C3)C5)C4)nc2)C(=O)N1 [Compound A195]	+++ (Degradation > 70%)	+++ (Degradation > 70%)	< 1000	–	–	–
O=C1CCN(c2cncc(N3CCN(CC4CN(c5cccc(Nc6ncc7c(n6)-c6ccc(Cl)cc6C(c6c(F)cccc6F)=NC7)c5)C4)CC3)c2)C(=O)N1 [Compound A197]	+++ (Degradation > 70%)	+++ (Degradation > 70%)	< 1000	–	–	–
O=C1CCN(c2ccc(N3CCN(CC4CN(c5ccc(Nc6ncc7c(n6)-c6ccc(Cl)cc6C(c6c(F)cccc6F)=NC7)cc5)C4)CC3)nc2)C(=O)N1 [Compound A199]	+++ (Degradation > 70%)	+++ (Degradation > 70%)	< 1000	–	–	–
O=C1CCN(c2cnc(N3CC(CN4CCN(c5ccc(Nc6ncc7c(n6)-c6ccc(Cl)cc6C(c6c(F)cccc6F)=NC7)cc5)C(=O)C4)C3)s2)C(=O)N1 [Compound A203]	++ (30% < Degradation ≤ 70%)	+++ (Degradation > 70%)	< 1000	–	–	–
O=C1CCN(c2cncc(N3CC(CN4CCc5ccc(Nc6ncc7c(n6)-c6ccc(Cl)cc6C(c6c(F)cccc6F)=NC7)cc5C4)C3)c2)C(=O)N1 [Compound A209]	+++ (Degradation > 70%)	+++ (Degradation > 70%)	–	–	–	< 1000
N#Cc1cc(Nc2ncc3c(n2)-c2ccc(Cl)cc2C(c2c(F)cccc2F)=NC3)ccc1N1CCN(C2CCN(c3ccc(N4CCC(=O)NC4=O)cn3)CC2)CC1 [Compound A211]	++ (30% < Degradation ≤ 70%)	+++ (Degradation > 70%)	< 1000	–	–	–
O=C1CCN(c2ccc(N3CCC(N4CCN(c5ccc(Nc6ncc7c(n6)-c6ccc(Cl)cc6C(c6c(F)cccc6F)=NC7)cn5)CC4)CC3)nc2)C(=O)N1 [Compound A213]	+++ (Degradation > 70%)	+++ (Degradation > 70%)	< 1000	–	–	–
O=C1CCN(c2cncc(N3CC(CN4CCOc5ccc(Nc6ncc7c(n6)-c6ccc(Cl)cc6C(c6c(F)cccc6F)=NC7)cc5C4)C3)c2)C(=O)N1 [Compound A214]	+++ (Degradation > 70%)	+ (Degradation ≤ 30%)	< 1000	–	–	–
O=C1CCN(c2ccc(N3CCC(N4CCN(C56CC(Nc7ncc8c(n7)-c7ccc(Cl)cc7C(c7c(F)cccc7F)=NC8)(C5)C6)CC4)CC3)nc2)C(=O)N1 [Compound A216]	++ (30% < Degradation ≤ 70%)	++ (30% < Degradation ≤ 70%)	< 1000	–	–	–
O=C1CCN(c2ccc(N3CCC(N4CCN(c5ccc(Nc6ncc7c(n6)-c6ccc(Cl)cc6C(c6c(F)cccc6F)=NC7)cc5)C5(CC5)C4)CC3)nc2)C(=O)N1 [Compound A217]	+ (Degradation ≤ 30%)	+ (Degradation ≤ 30%)	< 1000	–	–	–
O=C1CCN(c2ccc(N3CC(CN4CCN(C56CC(Nc7ncc8c(n7)-c7ccc(Cl)cc7C(c7c(F)cccc7F)=NC8)(C5)C6)CC4)C3)nc2)C(=O)N1 [Compound A219]	+++ (Degradation > 70%)	+++ (Degradation > 70%)	< 1000	–	–	–
O=C1CCN(c2cccc(N3CCC(N4CC5(CN(c6cccc(Nc7ncc8c(n7)-c7ccc(Cl)cc7C(c7c(F)cccc7F)=NC8)c6)C5)C4)CC3)c2)C(=O)N1 [Compound A223]	–	–	–	+++ (key: +: Degradation ≤ 30%; ++: 30% < Degradation ≤ 70%; +++: Degradation > 70%)	+++ (key: +: Degradation ≤ 30%; ++: 30% < Degradation ≤ 70%; +++: Degradation > 70%)	< 1000
CN1CCN(CC2CN(c3cncc(N4CCC(=O)NC4=O)c3)C2)Cc2cc(Nc3ncc4c(n3)-c3ccc(Cl)cc3C(c3c(F)cccc3F)=NC4)ccc21 [Compound A225]	+++ (Degradation > 70%)	+ (Degradation ≤ 30%)	< 1000	–	–	–
O=C1CCN(c2ccc(N3CCC(N4CCN(C56CC(Nc7ncc8c(n7)-c7ccc(Cl)cc7C(c7c(F)cccc7F)=NC8)(C5)C6)CC4)C3)nc2)C(=O)N1 (stereo not drawn) [Compound A227]	++ (30% < Degradation ≤ 70%)	+ (Degradation ≤ 30%)	< 1000	–	–	–
